Results taken from patent US20230278993A1, “NOVEL TRICYCLIC AROMATIC HETEROCYCLIC COMPOUND AND PREPARATION METHOD THEREFOR, PHARMACEUTICAL COMPOSITION AND USE THEREOF” (SHANGHAI LONGWOOD BIOPHARMACEUTICALS CO., LTD., priority 2020, published 2023).

Target: PD-1/PD-L1 (Homo sapiens (Human), UniProt Q9NZQ7)
Experiment: PD-1/PD-L1 homogeneous time-resolved fluorescence (HTRF) binding assay
Conditions: recombinant human PD-L1 (19-238) His-tagged, human PD-1 (25-167) Fc tag; 25° C., PBS pH 7.4
Method: Example A: PD-1/PD-L1 Homogeneous Time-Resolved Fluorescence (HTRF) Binding Assay
Assays were performed in standard black 384-well polystyrene plates and a final volume was 20 μL. The inhibitor was first serially diluted with DMSO and added to the wells of the plate, followed by the addition of other reaction components. The final concentration of DMSO in the assay was 1%. Assays were performed at 25° C. in PBS buffer (pH 7.4) containing 0.05% Tween-20 and 0.1% BSA. Recombinant human PD-L1 protein (19-238) with a His-tagged at the C-terminus was purchased from AcroBiosystems (PD1-H5229). Recombinant human PD-1 protein (25-167) with an Fc tag at the C-terminus was also purchased from AcroBiosystems (PD1-H5257). The PD-L1 and PD-1 proteins were diluted in assay buffer and then […] of the solution was extracted and added to the wells of the plate. Plates were centrifuged and proteins and inhibitors were preincubated for 40 minutes. After incubation, […] of HTRF detection buffer containing europium […] labeled anti-human IgG (PerkinElmer-AD0212), Fc-specific and anti-His SureLight@-Allophycocyanin (APC, PerkinElmer-AD0059H) conjugated antibodies was added. After centrifugation, the plates were incubated at 25° C. for 60 minutes. Data was read in a PHERAstar FS plate reader (665 nm/620 nm ratio). Final concentrations in the assay were ˜3 nM of PD1, 10 nM of PD-L1, 1 nM of europium anti-human IgG, and 20 nM of anti-His-allophycocyanin. Activity data were fitted using GraphPad Prism 5.0 software to derive IC50 values for inhibitors.
The IC50 values of the compounds exemplified in the examples are expressed in the following manner: IC50: +: ≤100 nM; ++: 100 nM˜1000 nM; +++: >1000 nM. The data of the example compounds obtained using the PD-1/PD-L1 homogeneous time-resolved fluorescence (HTRF) binding assay described in Example A were provided in Table 1.

Chain of PD-1/PD-L1 (Q9NZQ7 19-238): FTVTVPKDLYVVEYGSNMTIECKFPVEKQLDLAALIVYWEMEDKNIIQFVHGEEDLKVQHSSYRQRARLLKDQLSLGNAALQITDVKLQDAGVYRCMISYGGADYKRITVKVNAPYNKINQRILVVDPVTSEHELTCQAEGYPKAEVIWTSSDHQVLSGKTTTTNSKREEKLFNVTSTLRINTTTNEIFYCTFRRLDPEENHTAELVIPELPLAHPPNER

N#Cc1c2c(cc3nc(-c4cccc(-c5ccc6c(c5)OCCO6)c4Cl)oc13)[C@H](NCCC(=O)O)CC2 [Compound 050]
IC50: ≤ 100 nM

Cc1c(-c2ccc3c(c2)OCCO3)cccc1-c1cc2cc3c(c(C#N)c2o1)CC[C@H]3N1CC[C@@H](C(=O)O)C1 [Compound 013]
IC50: ≤ 100 nM

Cc1c(-c2ccc3c(c2)OCCO3)cccc1-c1nc2cc3c(c(C#N)c2o1)CC[C@H]3NCCC(=O)O [Compound 049]
IC50: ≤ 100 nM

N#Cc1c2c(cc3nc(-c4cccc(-c5ccc6c(c5)OCCO6)c4Cl)oc13)[C@@H](N1CC[C@@H](C(=O)O)C1)CC2 [Compound 026]
IC50: ≤ 100 nM

O=C(O)[C@@H]1CCN([C@@H]2CCc3c2cc2cc(-c4cccc(-c5ccccc5)c4Cl)oc2c3F)C1 [Compound 005]
IC50: ≤ 100 nM

N#Cc1c2c(cc3nc(-c4cccc(-c5ccc6c(c5)OCCO6)c4Cl)oc13)[C@H](N1CC[C@@H](C(=O)NS(=O)(=O)C3CC3)C1)CC2 [Compound 025]
IC50: ≤ 100 nM

Cc1c(-c2ccc3c(c2)OCCO3)cccc1-c1nc2cc3c(c(C#N)c2o1)CC[C@H]3N1CC[C@@H](C(=O)O)C1 [Compound 047]
IC50: ≤ 100 nM
